Measurements from PubChem BioAssay (NCI).
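Interpolation was linear, between the two tested concentrations surrounding the appropriate level; five concentrations were tested over 48 hours in 96-well plates. Definition used: TGI = concentration required for complete inhibition of growth.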

How the values were obtained:
Assay in all cases: NCI anticancer screen, dose series, 48 h
HCT-15 colon = tested on: HCT-15 colon
CAKI-1 renal = tested on: CAKI-1 renal
UACC-62 melanoma = tested on: UACC-62 melanoma
SK-MEL-5 melanoma = tested on: SK-MEL-5 melanoma
PC-3 prostate = tested on: PC-3 prostate
NCI/ADR-RES ovarian = tested on: NCI/ADR-RES ovarian
MDA-N = tested on: MDA-N
HCC-2998 colon = tested on: HCC-2998 colon
MDA-MB-231 breast = tested on: MDA-MB-231 breast
NCI-H226 lung = tested on: NCI-H226 lung
SNB-75 CNS = tested on: SNB-75 CNS
MALME-3M melanoma = tested on: MALME-3M melanoma
SF-295 CNS = tested on: SF-295 CNS
786-0 renal = tested on: 786-0 renal
SW-620 colon = tested on: SW-620 colon
TK-10 renal = tested on: TK-10 renal
SK-MEL-2 melanoma = tested on: SK-MEL-2 melanoma
K-562 leukemia = tested on: K-562 leukemia
SNB-19 CNS = tested on: SNB-19 CNS
NCI-H23 lung = tested on: NCI-H23 lung
BT-549 breast = tested on: BT-549 breast
M14 melanoma = tested on: M14 melanoma
MCF7 breast = tested on: MCF7 breast
A498 renal = tested on: A498 renal
RXF 393 renal = tested on: RXF 393 renal
HOP-62 NSCLC = tested on: HOP-62 NSCLC
SK-OV-3 ovarian = tested on: SK-OV-3 ovarian
SF-539 CNS = tested on: SF-539 CNS
NCI-H460 lung = tested on: NCI-H460 lung
HT29 colon = tested on: HT29 colon
NCI-H522 lung = tested on: NCI-H522 lung
IGROV1 ovarian = tested on: IGROV1 ovarian
HOP-92 NSCLC = tested on: HOP-92 NSCLC
UO-31 renal = tested on: UO-31 renal
SR leukemia = tested on: SR leukemia
T-47D breast = tested on: T-47D breast
OVCAR-5 ovarian = tested on: OVCAR-5 ovarian
SK-MEL-28 melanoma = tested on: SK-MEL-28 melanoma
SN12C renal = tested on: SN12C renal
HCT-116 colon = tested on: HCT-116 colon
SF-268 CNS = tested on: SF-268 CNS
LOX IMVI melanoma = tested on: LOX IMVI melanoma
A549 NSCLC = tested on: A549 NSCLC
RPMI-8226 leukemia = tested on: RPMI-8226 leukemia
ACHN renal = tested on: ACHN renal
KM12 colon = tested on: KM12 colon
COLO 205 colon = tested on: COLO 205 colon
OVCAR-4 ovarian = tested on: OVCAR-4 ovarian
UACC-257 melanoma = tested on: UACC-257 melanoma
U251 CNS = tested on: U251 CNS
OVCAR-3 ovarian = tested on: OVCAR-3 ovarian
EKVX NSCLC = tested on: EKVX NSCLC
OVCAR-8 ovarian = tested on: OVCAR-8 ovarian
MDA-MB-435 = tested on: MDA-MB-435
DU-145 prostate = tested on: DU-145 prostate
HS 578T breast = tested on: HS 578T breast
MOLT-4 leukemia = tested on: MOLT-4 leukemia
CCRF-CEM leukemia = tested on: CCRF-CEM leukemia
HL-60(TB) leukemia = tested on: HL-60(TB) leukemia

CN(C)CCn1c(=O)nc2c3c(c([N+](=O)[O-])ccc31)Nc1ccc(O)cc1-2
TGI (HCT-15 colon): > 100 µM | TGI (CAKI-1 renal): > 45.7 µM | TGI (UACC-62 melanoma): 23.2 µM | TGI (SK-MEL-5 melanoma): 20.1 µM | TGI (PC-3 prostate): > 46.9 µM | TGI (NCI/ADR-RES ovarian): > 100 µM | TGI (MDA-N): 23.7 µM | TGI (HCC-2998 colon): 13.1 µM | TGI (MDA-MB-231 breast): 10.2 µM | TGI (NCI-H226 lung): 20.8 µM | TGI (SNB-75 CNS): 21.2 µM | TGI (MALME-3M melanoma): 18 µM | TGI (SF-295 CNS): 24.8 µM | TGI (786-0 renal): 6.52 µM | TGI (SW-620 colon): > 42.6 µM | TGI (TK-10 renal): 36 µM | TGI (SK-MEL-2 melanoma): 33.6 µM | TGI (K-562 leukemia): > 25.7 µM | TGI (SNB-19 CNS): 16.8 µM | TGI (NCI-H23 lung): 33.4 µM | TGI (BT-549 breast): 37 µM | TGI (M14 melanoma): > 49.3 µM | TGI (MCF7 breast): 5.68 µM | TGI (A498 renal): 23.4 µM | TGI (RXF 393 renal): 10.5 µM | TGI (HOP-62 NSCLC): 16.6 µM | TGI (SK-OV-3 ovarian): 35.1 µM | TGI (SF-539 CNS): 8.36 µM | TGI (NCI-H460 lung): 15.6 µM | TGI (HT29 colon): 15.3 µM | TGI (NCI-H522 lung): 6.13 µM | TGI (IGROV1 ovarian): 12.3 µM | TGI (HOP-92 NSCLC): 16.2 µM | TGI (UO-31 renal): 28.7 µM | TGI (SR leukemia): 8.92 µM | TGI (T-47D breast): 6.48 µM | TGI (OVCAR-5 ovarian): > 81.2 µM | TGI (SK-MEL-28 melanoma): 32.7 µM | TGI (SN12C renal): 17.1 µM | TGI (HCT-116 colon): 8.37 µM | TGI (SF-268 CNS): 17.1 µM | TGI (LOX IMVI melanoma): 3.15 µM | TGI (A549 NSCLC): 27.8 µM | TGI (RPMI-8226 leukemia): 26.6 µM | TGI (ACHN renal): 17.4 µM | TGI (KM12 colon): > 27.5 µM | TGI (COLO 205 colon): 14.5 µM | TGI (OVCAR-4 ovarian): > 42.7 µM | TGI (UACC-257 melanoma): > 54.9 µM | TGI (U251 CNS): 6.26 µM | TGI (OVCAR-3 ovarian): 15.3 µM | TGI (EKVX NSCLC): > 63.6 µM | TGI (OVCAR-8 ovarian): 11.4 µM | TGI (MDA-MB-435): 46.6 µM | TGI (DU-145 prostate): > 47.5 µM | TGI (HS 578T breast): 22.4 µM | TGI (MOLT-4 leukemia): 3.6 µM

S=c1[nH]nc(C23CC4CC(CC(C4)C2)C3)n1-c1ccc(Cl)cc1
TGI (HCT-15 colon): 23.3 µM | TGI (CAKI-1 renal): 11.5 µM | TGI (UACC-62 melanoma): 25.3 µM | TGI (SK-MEL-5 melanoma): 14.4 µM | TGI (PC-3 prostate): 93.7 µM | TGI (NCI/ADR-RES ovarian): 59.8 µM | TGI (MDA-N): 41.1 µM | TGI (HCC-2998 colon): 32.9 µM | TGI (MDA-MB-231 breast): 56.4 µM | TGI (NCI-H226 lung): 55.8 µM | TGI (SNB-75 CNS): 72.1 µM | TGI (MALME-3M melanoma): 63.3 µM | TGI (SF-295 CNS): 58.6 µM | TGI (786-0 renal): > 100 µM | TGI (SW-620 colon): > 100 µM | TGI (TK-10 renal): 72.4 µM | TGI (SK-MEL-2 melanoma): 27.9 µM | TGI (K-562 leukemia): > 100 µM | TGI (SNB-19 CNS): > 100 µM | TGI (NCI-H23 lung): > 100 µM | TGI (BT-549 breast): 29.9 µM | TGI (M14 melanoma): 41.4 µM | TGI (MCF7 breast): 45.7 µM | TGI (A498 renal): 42.6 µM | TGI (RXF 393 renal): 38.1 µM | TGI (HOP-62 NSCLC): 32.7 µM | TGI (SK-OV-3 ovarian): 73.9 µM | TGI (SF-539 CNS): 38 µM | TGI (NCI-H460 lung): 56 µM | TGI (HT29 colon): 36.8 µM | TGI (NCI-H522 lung): 57.9 µM | TGI (IGROV1 ovarian): 42.9 µM | TGI (UO-31 renal): 44.7 µM | TGI (SR leukemia): 16.4 µM | TGI (T-47D breast): 52 µM | TGI (OVCAR-5 ovarian): > 100 µM | TGI (SK-MEL-28 melanoma): 33.4 µM | TGI (SN12C renal): 39.9 µM | TGI (HCT-116 colon): 23.8 µM | TGI (CCRF-CEM leukemia): 19.8 µM | TGI (SF-268 CNS): 50.1 µM | TGI (LOX IMVI melanoma): 17 µM | TGI (A549 NSCLC): 72.2 µM | TGI (RPMI-8226 leukemia): 66.9 µM | TGI (HL-60(TB) leukemia): 8.41 µM | TGI (ACHN renal): 73.5 µM | TGI (KM12 colon): 52.9 µM | TGI (COLO 205 colon): 46 µM | TGI (OVCAR-4 ovarian): > 100 µM | TGI (UACC-257 melanoma): 71.4 µM | TGI (U251 CNS): 31.7 µM | TGI (OVCAR-3 ovarian): 30.4 µM | TGI (OVCAR-8 ovarian): > 100 µM | TGI (MDA-MB-435): 55.9 µM | TGI (DU-145 prostate): 95.9 µM | TGI (HS 578T breast): 52.8 µM | TGI (MOLT-4 leukemia): 49.4 µM
